Data published in ChEMBL document CHEMBL1909046, “DrugMatrix in vitro pharmacology data”.

How the values were obtained:
Cytochrome P450 2C9 = Cytochrome P450 2C9 (Homo sapiens, UniProt P11712); conditions: bti-tn-5b1-4; further: in other assays of this panel Not Active means under 50% inhibition at 10 µM
Carbonic anhydrase 2 = Carbonic anhydrase 2 (Homo sapiens, UniProt P00918); test: DRUGMATRIX: Carbonic Anhydrase II enzyme inhibition (substrate: 4-Nitrophenyl acetate (4-NPA)); format: tissue-based, Erythrocyte; conditions: Not Active = under 50% inhibition at 10 µM
[1] = molecular target: T1, Polyunsaturated fatty acid lipoxygenase ALOX15 (Oryctolagus cuniculus, UniProt P12530); test: biochemical; format: tissue-based, Reticulocytes;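 further: inhibition of 15-lipoxygenase enzyme activity measured with linoleic acid as the substrate; in other assays of this panel Not Active means under 50% inhibition at 10 µM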
T1 sequence (P12530 whole entry): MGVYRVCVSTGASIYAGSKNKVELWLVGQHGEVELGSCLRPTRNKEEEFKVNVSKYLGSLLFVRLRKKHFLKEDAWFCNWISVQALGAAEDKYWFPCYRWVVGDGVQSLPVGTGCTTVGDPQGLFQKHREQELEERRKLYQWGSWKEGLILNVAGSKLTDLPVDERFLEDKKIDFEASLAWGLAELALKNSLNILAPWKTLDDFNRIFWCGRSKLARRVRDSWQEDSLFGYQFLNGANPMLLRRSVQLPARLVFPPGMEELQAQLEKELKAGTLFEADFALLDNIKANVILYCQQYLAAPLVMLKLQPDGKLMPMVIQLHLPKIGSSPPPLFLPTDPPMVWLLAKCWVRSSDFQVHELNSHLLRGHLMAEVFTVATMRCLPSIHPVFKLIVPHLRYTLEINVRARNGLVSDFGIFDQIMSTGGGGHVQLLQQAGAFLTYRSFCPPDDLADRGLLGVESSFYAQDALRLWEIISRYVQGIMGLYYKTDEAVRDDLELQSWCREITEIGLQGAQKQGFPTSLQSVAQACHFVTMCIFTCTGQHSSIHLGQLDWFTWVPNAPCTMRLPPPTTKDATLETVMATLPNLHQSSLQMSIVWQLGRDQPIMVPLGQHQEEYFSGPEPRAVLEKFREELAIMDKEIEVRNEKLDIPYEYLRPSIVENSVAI

[2] = molecular target: Voltage-gated inwardly rectifying potassium channel KCNH2 (Homo sapiens, UniProt Q12809); conditions: hek293; further: in other assays of this panel Not Active means under 50% inhibition at 10 µM
Cathepsin G = molecular target: T2, Cathepsin G (Homo sapiens, UniProt P08311); format: tissue-based; conditions: neutrophil;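 further: inhibition of Cathepsin G enzyme activity, tested on an AMC-conjugated peptide substrate; in other assays of this panel Not Active means under 50% inhibition at 10 µM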
T2 sequence (P08311 whole entry): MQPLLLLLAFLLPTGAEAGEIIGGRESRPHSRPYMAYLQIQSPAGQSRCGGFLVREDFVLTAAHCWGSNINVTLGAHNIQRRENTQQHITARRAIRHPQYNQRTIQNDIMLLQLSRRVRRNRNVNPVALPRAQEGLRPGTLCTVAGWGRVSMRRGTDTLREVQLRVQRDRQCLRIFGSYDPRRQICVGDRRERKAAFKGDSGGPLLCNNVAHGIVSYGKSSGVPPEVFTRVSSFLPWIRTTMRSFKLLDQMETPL

[3] = molecular target: T3, Muscarinic acetylcholine receptor M2 (Homo sapiens, UniProt P08172); format: cell membranes, CHO-K1, Membrane; further: in other assays of this panel Not Active means under 50% inhibition at 10 µM
T3 sequence (P08172 whole entry): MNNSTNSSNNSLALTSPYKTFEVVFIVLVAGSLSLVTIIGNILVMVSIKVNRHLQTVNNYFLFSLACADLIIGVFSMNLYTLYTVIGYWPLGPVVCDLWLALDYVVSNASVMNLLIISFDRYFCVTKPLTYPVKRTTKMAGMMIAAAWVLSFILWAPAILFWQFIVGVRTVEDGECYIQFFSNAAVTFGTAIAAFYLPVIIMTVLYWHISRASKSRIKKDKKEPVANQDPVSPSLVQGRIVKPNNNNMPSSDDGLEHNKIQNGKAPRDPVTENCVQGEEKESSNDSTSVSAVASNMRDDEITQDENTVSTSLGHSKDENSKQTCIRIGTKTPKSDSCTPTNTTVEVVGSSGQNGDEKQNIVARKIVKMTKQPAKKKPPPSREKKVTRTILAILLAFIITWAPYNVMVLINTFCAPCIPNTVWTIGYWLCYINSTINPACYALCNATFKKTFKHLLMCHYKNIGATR

[4] = molecular target: Sigma non-opioid intracellular receptor 1 (Homo sapiens, UniProt Q99720); test: DRUGMATRIX: Sigma1 radioligand binding (ligand: [3H] Haloperidol); format: cell membranes, Jurkat, Membrane; conditions: Not Active = under 50% inhibition at 10 µM; for Ki: read-out: Ki
Sigma non-opioid intracellular receptor 1, sequence (Q99720 whole entry): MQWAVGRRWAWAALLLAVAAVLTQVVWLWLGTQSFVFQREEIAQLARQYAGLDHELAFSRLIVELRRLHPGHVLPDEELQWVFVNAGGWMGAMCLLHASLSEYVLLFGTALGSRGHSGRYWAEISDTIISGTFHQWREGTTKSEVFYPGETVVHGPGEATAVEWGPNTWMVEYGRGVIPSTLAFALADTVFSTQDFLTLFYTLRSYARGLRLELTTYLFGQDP

Cytochrome P450 2C9, sequence (P11712 whole entry): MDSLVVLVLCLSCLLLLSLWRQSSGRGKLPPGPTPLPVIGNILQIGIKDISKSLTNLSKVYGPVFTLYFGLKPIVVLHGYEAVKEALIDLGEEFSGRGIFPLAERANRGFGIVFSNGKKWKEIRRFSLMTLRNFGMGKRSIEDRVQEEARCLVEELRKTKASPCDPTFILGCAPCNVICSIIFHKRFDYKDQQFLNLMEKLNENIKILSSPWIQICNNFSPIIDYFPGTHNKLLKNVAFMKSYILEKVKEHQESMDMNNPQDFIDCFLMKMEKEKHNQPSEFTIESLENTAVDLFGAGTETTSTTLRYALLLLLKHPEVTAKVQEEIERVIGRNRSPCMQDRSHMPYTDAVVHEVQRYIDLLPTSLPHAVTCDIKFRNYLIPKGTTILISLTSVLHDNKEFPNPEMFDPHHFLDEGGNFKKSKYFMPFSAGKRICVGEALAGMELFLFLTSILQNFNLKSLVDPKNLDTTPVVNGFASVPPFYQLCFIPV
Voltage-gated inwardly rectifying potassium channel KCNH2, sequence (Q12809 whole entry): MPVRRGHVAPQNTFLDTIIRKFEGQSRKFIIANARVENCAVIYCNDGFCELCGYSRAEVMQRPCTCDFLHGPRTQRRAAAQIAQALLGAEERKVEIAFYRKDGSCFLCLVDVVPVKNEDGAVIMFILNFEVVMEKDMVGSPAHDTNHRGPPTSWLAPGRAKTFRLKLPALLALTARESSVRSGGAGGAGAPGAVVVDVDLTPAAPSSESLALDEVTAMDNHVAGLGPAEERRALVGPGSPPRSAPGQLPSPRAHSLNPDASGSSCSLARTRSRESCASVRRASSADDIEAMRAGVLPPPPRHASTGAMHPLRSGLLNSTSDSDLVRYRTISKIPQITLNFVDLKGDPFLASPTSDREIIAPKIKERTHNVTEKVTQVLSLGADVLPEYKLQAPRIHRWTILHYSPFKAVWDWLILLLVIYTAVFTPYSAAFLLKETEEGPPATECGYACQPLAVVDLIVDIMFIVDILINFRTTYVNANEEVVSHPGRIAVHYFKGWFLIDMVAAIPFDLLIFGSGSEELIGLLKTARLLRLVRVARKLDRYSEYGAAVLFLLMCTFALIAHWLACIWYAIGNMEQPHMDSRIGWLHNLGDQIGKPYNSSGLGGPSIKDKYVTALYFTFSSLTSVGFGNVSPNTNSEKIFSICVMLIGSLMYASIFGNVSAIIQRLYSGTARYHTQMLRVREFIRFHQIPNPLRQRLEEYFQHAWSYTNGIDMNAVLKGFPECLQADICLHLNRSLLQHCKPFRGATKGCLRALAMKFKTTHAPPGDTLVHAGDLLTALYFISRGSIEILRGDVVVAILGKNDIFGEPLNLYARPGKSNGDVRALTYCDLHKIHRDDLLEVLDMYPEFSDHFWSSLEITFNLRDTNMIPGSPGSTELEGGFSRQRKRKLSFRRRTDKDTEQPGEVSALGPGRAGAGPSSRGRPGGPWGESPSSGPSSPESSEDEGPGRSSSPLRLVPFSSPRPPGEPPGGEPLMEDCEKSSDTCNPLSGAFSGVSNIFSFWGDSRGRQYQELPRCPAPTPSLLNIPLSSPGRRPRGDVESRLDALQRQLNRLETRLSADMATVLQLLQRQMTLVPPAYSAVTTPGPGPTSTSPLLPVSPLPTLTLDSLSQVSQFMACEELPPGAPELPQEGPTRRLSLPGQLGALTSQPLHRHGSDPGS

| Compound | IC50 (Cytochrome P450 2C9) | Ki (Cytochrome P450 2C9) | IC50 (Carbonic anhydrase 2; erythrocyte) | IC50 ([1]; reticulocytes) | IC50 [2] | Ki [2] | IC50 (Cathepsin G) | IC50 ([3]; cho-k1) | IC50 ([4]; jurkat) | IC50 ([1]; read-out: IC50) [nM] | IC50 ([3]; read-out: IC50) [µM] | Ki ([3]; read-out: Ki) [µM] | IC50 ([4]; read-out: IC50) [nM] | Ki [4] [nM] | IC50 (Carbonic anhydrase 2; read-out: IC50) [nM] |
| --- | --- | --- | --- | --- | --- | --- | --- | --- | --- | --- | --- | --- | --- | --- | --- |
| COc1nc(C)nc(Cl)c1NC1=NCCN1 [MOXONIDINE] | Not Active | Not Active | Not Active | Not Active | Not Active | Not Active | Not Active | Not Active | Not Active |  |  |  |  |  |  |
| N[C@@H](Cc1ccc(O)c(O)c1)C(=O)O [LEVODOPA] | Not Active | Not Active | Not Active |  | Not Active | Not Active | Not Active | Not Active | Not Active | 2260 |  |  |  |  |  |
| OCCN(CCO)c1nc(N2CCCCC2)c2nc(N(CCO)CCO)nc(N3CCCCC3)c2n1 [DIPYRIDAMOLE] |  |  | Not Active |  | Not Active | Not Active | Not Active | Not Active | Not Active | 6960 |  |  |  |  |  |
| Cn1ccnc1S [METHIMAZOLE] | Not Active | Not Active | Not Active | Not Active | Not Active | Not Active | Not Active | Not Active | Not Active |  |  |  |  |  |  |
| CC(=O)[C@@]1(O)CC[C@H]2[C@@H]3C[C@H](C)C4=CC(=O)CC[C@]4(C)[C@H]3CC[C@@]21C | Not Active | Not Active | Not Active | Not Active | Not Active | Not Active | Not Active | Not Active | Not Active |  |  |  |  |  |  |
| C=CCC1(C(C)CCC)C(=O)NC(=O)NC1=O (stereo unspecified) [SECOBARBITAL] | Not Active | Not Active | Not Active | Not Active | Not Active | Not Active | Not Active | Not Active | Not Active |  |  |  |  |  |  |
| C[C@@H]1CN(c2c(F)c(N)c3c(=O)c(C(=O)O)cn(C4CC4)c3c2F)C[C@H](C)N1 [SPARFLOXACIN] | Not Active | Not Active | Not Active | Not Active |  |  | Not Active | Not Active | Not Active |  |  |  |  |  |  |
| O=c1ncn2nc(Sc3ccc(F)cc3F)ccc2c1-c1c(Cl)cccc1Cl [NEFLAMAPIMOD] | Not Active | Not Active | Not Active | Not Active | Not Active | Not Active | Not Active | Not Active | Not Active |  |  |  |  |  |  |
| Nc1c2c(nc3ccccc13)CCCC2 [TACRINE] | Not Active | Not Active | Not Active | Not Active | Not Active | Not Active | Not Active | Not Active | Not Active |  |  |  |  |  |  |
| CO[C@H]1/C=C/O[C@@]2(C)Oc3c(C)c(O)c4c(O)c(c(/C=N/N5CCN(C)CC5)c(O)c4c3C2=O)NC(=O)/C(C)=C\C=C\[C@H](C)[C@H](O)[C@@H](C)[C@@H](O)[C@@H](C)[C@H](OC(C)=O)[C@@H]1C [RIFAMPIN] |  |  | Not Active |  | Not Active | Not Active | Not Active | Not Active | Not Active | 2950 |  |  |  |  |  |
| CCCCc1oc2ccccc2c1C(=O)c1cc(I)c(OCCN(CC)CC)c(I)c1 [AMIODARONE] |  |  | Not Active | Not Active |  |  | Not Active |  |  |  |  |  |  |  |  |
| CCOC(=O)N1CCC(=C2c3ccc(Cl)cc3CCc3cccnc32)CC1 [LORATADINE] |  |  | Not Active | Not Active |  |  | Not Active | Not Active | Not Active |  |  |  |  |  |  |
| N[C@@H](Cc1ccc(N(CCCl)CCCl)cc1)C(=O)O | Not Active | Not Active | Not Active | Not Active | Not Active | Not Active | Not Active | Not Active | Not Active |  |  |  |  |  |  |
| Cc1noc(NS(=O)(=O)c2ccc(N)cc2)c1C [SULFISOXAZOLE] | Not Active | Not Active | Not Active | Not Active | Not Active | Not Active | Not Active | Not Active | Not Active |  |  |  |  |  |  |
| N[C@@H](Cc1cc(I)c(Oc2ccc(O)c(I)c2)c(I)c1)C(=O)O [LIOTHYRONINE] |  |  | Not Active | Not Active | Not Active | Not Active | Not Active | Not Active | Not Active |  |  |  |  |  |  |
| c1ccc([C@H]2CN3CCSC3=N2)cc1 [LEVAMISOLE] | Not Active | Not Active | Not Active | Not Active | Not Active | Not Active | Not Active | Not Active | Not Active |  |  |  |  |  |  |
| CC1(C)O[C@@H]2C[C@H]3[C@@H]4CCC5=CC(=O)C=C[C@]5(C)[C@@]4(F)[C@@H](O)C[C@]3(C)[C@]2(C(=O)CO)O1 [TRIAMCINOLONE ACETONIDE] | Not Active | Not Active | Not Active | Not Active | Not Active | Not Active | Not Active | Not Active | Not Active |  |  |  |  |  |  |
| N#CC(C#N)=Cc1ccc(O)c(O)c1 [TYRPHOSTIN 23] | Not Active | Not Active | Not Active | Not Active | Not Active | Not Active | Not Active | Not Active | Not Active |  |  |  |  |  |  |
| Nc1nc2nc[nH]c2c(=S)[nH]1 [THIOGUANINE] | Not Active | Not Active | Not Active |  |  |  | Not Active | Not Active | Not Active | 16200 |  |  |  |  |  |
| NS(=O)(=O)c1cc2c(cc1Cl)NC(C(Cl)Cl)NS2(=O)=O (stereo unspecified) [TRICHLORMETHIAZIDE] | Not Active | Not Active | Not Active | Not Active | Not Active | Not Active | Not Active | Not Active | Not Active |  |  |  |  |  |  |
| CC(C)N1CCN(c2ccc(OCC3COC(Cn4cncn4)(c4ccc(Cl)cc4Cl)O3)cc2)CC1 (stereo unspecified) [TERCONAZOLE] | Not Active | Not Active | Not Active |  | Not Active | Not Active | Not Active |  |  | 2450 | 12.9 | 4.59 | 508 | 214 |  |
| CN1CCN(CCCN2c3ccccc3Sc3ccc(Cl)cc32)CC1 [PROCHLORPERAZINE] | Not Active | Not Active | Not Active | Not Active |  |  | Not Active |  |  |  |  |  | 54 | 23 |  |
| NC[C@H]1CC[C@H](C(=O)O)CC1 [TRANEXAMIC ACID] |  |  | Not Active | Not Active | Not Active | Not Active | Not Active | Not Active | Not Active |  |  |  |  |  |  |
| CC/C(=C(\c1ccccc1)c1ccc(OCCN(C)C)cc1)c1ccccc1 [TAMOXIFEN] |  |  | Not Active | Not Active |  |  | Not Active |  |  |  |  |  |  |  |  |
| Nc1nc2ccc(OC(F)(F)F)cc2s1 [RILUZOLE] |  |  | Not Active | Not Active |  |  | Not Active | Not Active | Not Active |  |  |  |  |  |  |
| Cc1c(C)c2c(c(C)c1O)CCC(C)(COc1ccc(CC3SC(=O)NC3=O)cc1)O2 (stereo unspecified) [TROGLITAZONE] |  |  |  | Not Active | Not Active | Not Active | Not Active | Not Active | Not Active |  |  |  |  |  | 970 |
| Cc1nc2n(c(=O)c1CCN1CCC(c3noc4cc(F)ccc34)CC1)CCCC2 [RISPERIDONE] | Not Active | Not Active | Not Active | Not Active |  |  | Not Active | Not Active |  |  |  |  |  |  |  |
